Entries after “also recorded” stand apart in the source; their conditions may differ.
Columns and labels:
[1] = test system: Colorectal adenocarcinoma cells (HT-29); assay: NP on colon cancer cells in vitro, cell count; format: cell-based, human; settings: daily EGCG 8 μM, Curcumin 0.5 μM, sulforaphane 2.5 μM or all three; counted when controls confluent
Protocol: Once the control cultures became confluent, a cell count was performed.

[2] = test system: Primary human GB stem cell lines; assay: Daily fold expansion, NP and TMZ in vitro; format: cell-based; settings: in combination with TMZ; EGCG 8 μM, Curcumin 0.5 μM, SFN 2.5 μM or all three
Protocol: FIG. 11: Daily fold expansion—Effect of NP and TMZ in vitro. Primary human GB stem cell lines were treated daily for 4 out of 5 days in culture TMZ alone or in combination with EGCG (8 μM), Curcumin (0.5 μM), sulforaphane (2.5 μM) or a combination of all three (NP). Cells were passed after 5-7 days and cell counts performed. […] The stars (*) are compared to control, # to TMZ alone and $ to the different combinations of TMZ with each of the individual natural products. 1 symbol, p<0.05, 3 symbols, p<0.001, 1-way ANOVA.
Standard of care [SOC] for many solid tissue cancers involves the use of chemotherapy, which for many advanced or high grade tumors provides marginal benefit. Patient derived hGB cells were grown in culture and treated daily with the conventional drug temozolomide [TMZ, 20 μM] only or in combination with the following NPs:
[4] a combination of all three NPs
After 5-7 days in culture cells were counted and the mean daily fold expansion calculated.

[3] = test system: hNSC; assay: hNSC viability, MTT assay after neurosphere culture; format: cell-based, human; settings: 14 days culture, daily treatment; EGCG 8 μM, Curcumin 0.5 μM, SFN 2.5 μM or all three
Protocol: FIG. 33B) hNSC were plated at 20K cells per 100 ul of medium and cultured in the neurosphere assay for 14 days. […] After 14 days in culture, MTT assay was performed to measure cell viability.

[4] = test system: Human breast cancer cells (ZR751); assay: NP on breast cancer cell viability, MTT assay; format: cell-based; settings: daily EGCG 8 μM, Curcumin 0.5 μM, SFN 2.5 μM or combination; vs controls
Protocol: Human breast cancer cells (ZR751) were treated daily with EGCG (8 μM), Curcumin (0.5 μM) or SFN (2.5 μM) individually or in combination (NP). Once the control cultures became confluent, cell viability was measured using MTT assay.
Human breast cancer cells [ZR751] grown in culture and treated daily with physiological concentrations of either EGCG (8 μM), Curcumin (0.5 μM) or SFN (2.5 μM) or used in combination (NP).

[5] = test system: Lung carcinoma cells (A549); assay: NP on lung cancer cells in vitro, cell count; format: cell-based, human; settings: daily EGCG 8 μM, Curcumin 0.5 μM, sulforaphane 2.5 μM or all three; counted when controls confluent
Protocol: Once the control cultures became confluent a cell count was performed.

[6] = test system: Primary human GBM stem cell lines; assay: NP in vitro fold expansion of hGB cells; format: cell-based; settings: EGCG 8 μM, Curcumin 0.5 μM, sulforaphane 2.5 μM or all three; daily for 4 out of 5 days; vs control
Protocol: Cells were passed after 5-7 days and cell counts were performed. […] Micrographs show cultures after 4 days of exposure to the different treatments.
Patient derived hGB cells were cultured under defined conditions using established protocols that allow the tumor cells to retain both their phenotypic and genotypic properties in vitro. hGB cell lines were treated with the following NPs:

[7] = test system: Patient derived hGB cells; assay: Serial passage of hGB cells, growth and CSC expansion rate (Kll); format: cell-based, human; settings: 5 passages; EGCG 8 μM, curcumin 0.5 μM, SFN 2.5 μM or combination; vs control
Protocol: FIG. 10A) Patient derived hGB cells were serially passed in culture for 5 passages under a variety of treatment conditions. […] Human GB cells were cultured in the neurosphere assay over 5 passages during which CSC expansion rate was evaluated.
In a second experiment [FIG. 10], patient derived hGB cells were serially passed in culture while being treated with the following NPs:
[4] A combination of all three NPs

[8] = Non-tumor death, TMZ vs. mKD/NP; format: in vivo, mouse; settings: TMZ 20 mg/kg three times/week; mKD/NP diet; vs untreated controls
From the text: FIG. 5: Non-Tumor Death—TMZ vs. mKD/NP. Mortality rate unrelated to tumor was monitored during the course of treatments.

[9] = Body weight, TMZ vs. mKD/NP; settings: after 4 days of treatment, TMZ 20 mg/kg
Protocol: FIG. 6: Body weight—TMZ vs. mKD/NP. Toxicity/safety of mKD/NP was compared to standard of care (TMZ, 20 mg/kg) by monitoring body weight after 4 days of treatment.
The first line chemotherapy for high grade gliomas is temozolomide [TMZ], which is an oral alkylating agent that damages DNA and triggers cell death. While TMZ is an effective chemotherapy agent it also has significant toxicity. Using the same subcutaneous model as noted in example 2, at the time of tumor presentation animals were randomly assigned to one of three groups: [1] control diet, no treatment; [2] control diet, SOC [TMZ, 20 mg/kg three times/week]; [3] mKD/NP diet.

[10] = test system: high-grade gliomas such as GB; settings: GB patients; cited from earlier work

Molecule	cell number [1]	mean daily fold expansion, natural product added to TMZ treatment [2]	cell viability (MTT) [3]	cell viability (MTT) [4]	cell number [5]	mean daily fold expansion of GB cells [6]	CSC self-renewing symmetric division rate (Kll) [7]	mortality from non-tumor related causes [8]	body weight [9]	body weight ([9]; listed as SOC)	negative side effects [10]
COc1cc(/C=C/C(=O)CC(=O)/C=C/c2ccc(O)c(OC)c2)ccc1O [Curcumin, curcumin]	significant reduction in cell number	significant reduction in the mean daily fold expansion of hGB cells compared to control	did not show any effect on the viability of hNSCs	no statistically significant effect on reducing the number of breast cancer cells; also recorded: none of the natural product showed statistically significant effect compared to controls	do not show a statistically significant effect in reducing cell numbers	significant reduction in mean daily fold expansion	Only SFN or NP treated groups demonstrated significant decrease				
C[S+]([O-])CCCCN=C=S (stereo not drawn) [SFN, sulforaphane]	significant reduction in cell number	enhanced this effect, with SFN demonstrating the greatest effect; also recorded: significant reduction in the mean daily fold expansion of hGB cells compared to control	did not show any effect on the viability of hNSCs	no statistically significant effect on reducing the number of breast cancer cells; also recorded: none of the natural product showed statistically significant effect compared to controls		significant reduction in mean daily fold expansion	significant decrease of CSCs self-renewing symmetric division rate compared to control				
Cn1nnc2c(C(N)=O)ncn2c1=O [TMZ, temozolomide]								increase in mortality compared to the untreated controls	significant loss of body weight compared to control and mKD/NP	significantly reduced	nausea, vomiting and hematological toxicity
epigallocatechin-3-gallate [EGCG]	significant reduction in cell number	enhanced this effect; also recorded: significant reduction in the mean daily fold expansion of hGB cells compared to control	did not show any effect on the viability of hNSCs	no statistically significant effect on reducing the number of breast cancer cells; also recorded: none of the natural product showed statistically significant effect compared to controls	do not show a statistically significant effect in reducing cell numbers	significant reduction in mean daily fold expansion	Only SFN or NP treated groups demonstrated significant decrease				

Reference: patent US11666549B2, “Regulation of cancer using natural compounds and/or diet” (UNIVERSITY OF FLORIDA RESEARCH FOUNDATION, INC., priority 2013, dated 2023)
